Data: paper PMC5218480 (PLoS ONE, 2017)

System: MV-4-11 cells
Assay: Gene expression microarray analysis (Affymetrix PrimeView) and GSEA
Assay type: cell-based, human
Parameters: RFU PODN (11730768_x_at) / Fold change /veh PODN (11730768_x_at) / RFU LINC00158 (11744669_a_at) / Fold change /veh LINC00158 (11744669_a_at) / RFU DUSP10 (11751237_a_at) / Fold change /veh DUSP10 (11751237_a_at) / RFU ID3 (11757404_x_at) / Fold change /veh ID3 (11757404_x_at) / RFU PLEKHG5 (11737974_s_at) / Fold change /veh PLEKHG5 (11737974_s_at) / RFU LRRC4B (11730491_at) / Fold change /veh LRRC4B (11730491_at) / RFU GIMAP4 (11747438_a_at) / Fold change /veh GIMAP4 (11747438_a_at) / RFU KRT8 (11758183_x_at) / Fold change /veh KRT8 (11758183_x_at) / RFU CNN1 (11734310_a_at) / Fold change /veh CNN1 (11734310_a_at) / RFU VPS37D (11726825_at) / Fold change /veh VPS37D (11726825_at) / RFU C10orf10 (11716522_x_at) / Fold change /veh C10orf10 (11716522_x_at) / RFU KIR2DL2 /// KIR2DL4 /// KIR2DL5A /// KIR2DL5B /// KIR2DS1 /// KIR2DS2 /// KIR2DS3 /// KIR2DS4 /// KIR3DL3 /// KIR3DL3 /// KIR3DS1 (11738374_at) / Fold change /veh KIR2DL2 /// KIR2DL4 /// KIR2DL5A /// KIR2DL5B /// KIR2DS1 /// KIR2DS2 /// KIR2DS3 /// KIR2DS4 /// KIR3DL3 /// KIR3DL3 /// KIR3DS1 (11738374_at) / RFU C1QL1 (11718748_at) / Fold change /veh C1QL1 (11718748_at) / RFU TMPRSS4 (11747572_a_at) / Fold change /veh TMPRSS4 (11747572_a_at) / RFU HAMP (11756126_x_at) / Fold change /veh HAMP (11756126_x_at) / RFU RNFT2 (11725882_a_at) / Fold change /veh RNFT2 (11725882_a_at) / RFU NR4A2 (11747474_a_at) / Fold change /veh NR4A2 (11747474_a_at) / RFU ABCC12 (11746883_a_at) / Fold change /veh ABCC12 (11746883_a_at) / RFU TMEM136 (11760407_x_at) / Fold change /veh TMEM136 (11760407_x_at) / RFU CLDN22 /// WWC2 (11732394_at) / Fold change /veh CLDN22 /// WWC2 (11732394_at) / RFU HLA-DPB1 (11760878_x_at) / Fold change /veh HLA-DPB1 (11760878_x_at) / RFU SPINT1 (11716480_a_at) / Fold change /veh SPINT1 (11716480_a_at) / RFU GAP43 (11754022_s_at) / Fold change /veh GAP43 (11754022_s_at) / RFU A4GNT (11735810_at) / Fold change /veh A4GNT (11735810_at) / RFU PRB3 (11715151_x_at) / Fold change /veh PRB3 (11715151_x_at) / RFU TUBB4B (11761932_at) / Fold change /veh TUBB4B (11761932_at) / RFU CAPN14 (11732068_a_at) / Fold change /veh CAPN14 (11732068_a_at) / RFU TMCC2 (11721928_a_at) / Fold change /veh TMCC2 (11721928_a_at) / RFU IRGQ (11745062_a_at) / Fold change /veh IRGQ (11745062_a_at) / RFU FAM174B (11720279_a_at) / Fold change /veh FAM174B (11720279_a_at) / RFU TMPRSS4 (11748680_a_at) / Fold change /veh TMPRSS4 (11748680_a_at) / RFU FAM212B (11763350_a_at) / Fold change /veh FAM212B (11763350_a_at) / RFU PLEKHG5 (11743358_a_at) / Fold change /veh PLEKHG5 (11743358_a_at) / RFU ZSCAN30 (11745921_a_at) / Fold change /veh ZSCAN30 (11745921_a_at) / RFU CMKLR1 (11741424_a_at) / Fold change /veh CMKLR1 (11741424_a_at) / RFU LOC101060620 /// MAPK8IP1 (11723275_at) / Fold change /veh LOC101060620 /// MAPK8IP1 (11723275_at) / RFU SPTSSB (11747773_x_at) / Fold change /veh SPTSSB (11747773_x_at) / RFU PRSS12 (11739890_at) / Fold change /veh PRSS12 (11739890_at) / RFU BIN1 (11741810_x_at) / Fold change /veh BIN1 (11741810_x_at) / RFU WNT11 (11732464_a_at) / Fold change /veh WNT11 (11732464_a_at) / RFU C10orf10 (11716521_a_at) / Fold change /veh C10orf10 (11716521_a_at) / RFU C5orf56 (11738089_at) / Fold change /veh C5orf56 (11738089_at) / RFU CYB561 (11721691_x_at) / Fold change /veh CYB561 (11721691_x_at) / RFU ANKRD19P (11752326_a_at) / Fold change /veh ANKRD19P (11752326_a_at) / RFU OR2T12 /// OR2T33 /// OR2T8 (11738714_s_at) / Fold change /veh OR2T12 /// OR2T33 /// OR2T8 (11738714_s_at) / RFU VCAN (11748164_a_at) / Fold change /veh VCAN (11748164_a_at) / RFU JSRP1 (11732532_at) / Fold change /veh JSRP1 (11732532_at) / RFU KRTAP10-11 (11738290_x_at) / Fold change /veh KRTAP10-11 (11738290_x_at) / RFU MYO3A (11730013_a_at) / Fold change /veh MYO3A (11730013_a_at) / RFU EBF3 (11725865_a_at) / Fold change /veh EBF3 (11725865_a_at) / RFU CAMK2N1 (11719241_x_at) / Fold change /veh CAMK2N1 (11719241_x_at) / RFU C5orf56 (11738088_a_at) / Fold change /veh C5orf56 (11738088_a_at) / RFU OLFML3 (11715873_a_at) / Fold change /veh OLFML3 (11715873_a_at) / RFU LOC100653217 /// NTM (11731650_a_at) / Fold change /veh LOC100653217 /// NTM (11731650_a_at) / RFU MAPK11 (11762145_a_at) / Fold change /veh MAPK11 (11762145_a_at) / RFU FIZ1 (11724087_x_at) / Fold change /veh FIZ1 (11724087_x_at) / RFU OASL (11726364_x_at) / Fold change /veh OASL (11726364_x_at) / RFU SOX15 (11748057_x_at) / Fold change /veh SOX15 (11748057_x_at) / RFU CD79A (11719716_a_at) / Fold change /veh CD79A (11719716_a_at) / RFU HIST1H1D (11736915_at) / Fold change /veh HIST1H1D (11736915_at) / RFU CASKIN2 (11723855_a_at) / Fold change /veh CASKIN2 (11723855_a_at) / RFU LOC730098 (11760151_x_at) / Fold change /veh LOC730098 (11760151_x_at) / RFU OR4N2 (11742367_at) / Fold change /veh OR4N2 (11742367_at) / RFU PRRT2 (11749266_a_at) / Fold change /veh PRRT2 (11749266_a_at) / RFU SNX32 (11753110_a_at) / Fold change /veh SNX32 (11753110_a_at) / RFU CDHR5 (11726645_a_at) / Fold change /veh CDHR5 (11726645_a_at) / RFU RCAN1 (11760418_a_at) / Fold change /veh RCAN1 (11760418_a_at) / RFU FAM167A (11723789_a_at) / Fold change /veh FAM167A (11723789_a_at) / RFU FAM26E (11764081_at) / Fold change /veh FAM26E (11764081_at) / RFU ISYNA1 (11749810_s_at) / Fold change /veh ISYNA1 (11749810_s_at) / RFU ACY1 (11761880_at) / Fold change /veh ACY1 (11761880_at) / RFU 11764098_at / Fold change /veh 11764098_at / RFU SAMD14 (11745864_x_at) / Fold change /veh SAMD14 (11745864_x_at) / RFU NPB (11741838_a_at) / Fold change /veh NPB (11741838_a_at) / RFU TMPRSS6 (11731388_a_at) / Fold change /veh TMPRSS6 (11731388_a_at) / RFU KRTAP10-2 (11738614_at) / Fold change /veh KRTAP10-2 (11738614_at) / RFU ARHGAP8 /// PRR5-ARHGAP8 (11727945_x_at) / Fold change /veh ARHGAP8 /// PRR5-ARHGAP8 (11727945_x_at) / RFU KRTAP5-7 /// NADSYN1 (11734609_at) / Fold change /veh KRTAP5-7 /// NADSYN1 (11734609_at) / RFU RASL12 (11751679_a_at) / Fold change /veh RASL12 (11751679_a_at) / RFU CDKN2B (11736163_a_at) / Fold change /veh CDKN2B (11736163_a_at) / RFU PRF1 (11729649_at) / Fold change /veh PRF1 (11729649_at) / RFU, ZNF638 /// ZNF638-IT1 / Fold change vs veh, ZNF638 /// ZNF638-IT1 / RFU, PANK3 / Fold change vs veh, PANK3 / RFU, SH3YL1 / Fold change vs veh, SH3YL1 / RFU, ZEB2 / Fold change vs veh, ZEB2 / RFU, NRIP1 / Fold change vs veh, NRIP1 / RFU, PTTG1IP / Fold change vs veh, PTTG1IP / RFU, CAPN2 / Fold change vs veh, CAPN2 / RFU, MED14 / Fold change vs veh, MED14 / RFU, SNORA58 / Fold change vs veh, SNORA58 / RFU, C1orf63 / Fold change vs veh, C1orf63 / RFU, LRRFIP1 / Fold change vs veh, LRRFIP1 / RFU, NDUFAF7 / Fold change vs veh, NDUFAF7 / RFU, SLC12A2 / Fold change vs veh, SLC12A2 / RFU, IBTK / Fold change vs veh, IBTK / RFU, ESF1 / Fold change vs veh, ESF1 / Fold change vs veh, TMEM50B / RFU, TAOK1 / Fold change vs veh, TAOK1 / RFU, ACBD3 / Fold change vs veh, ACBD3 / RFU, TMA16 / Fold change vs veh, TMA16 / RFU, RWDD3 / Fold change vs veh, RWDD3 / RFU, BCAT1 / Fold change vs veh, BCAT1 / RFU, EDEM3 / Fold change vs veh, EDEM3 / RFU, TMEM33 / Fold change vs veh, TMEM33 / RFU, WDR75 / Fold change vs veh, WDR75 / RFU, AHCTF1 / Fold change vs veh, AHCTF1 / RFU, TFRC / Fold change vs veh, TFRC / RFU, ZDHHC17 / Fold change vs veh, ZDHHC17 / RFU, NOM1 / Fold change vs veh, NOM1 / RFU, ARL8B / Fold change vs veh, ARL8B / RFU, ZBTB11 / Fold change vs veh, ZBTB11 / RFU, TAMM41 / Fold change vs veh, TAMM41 / RFU, KIAA1704 /// LOC100996395 / Fold change vs veh, KIAA1704 /// LOC100996395 / RFU, ING1 / Fold change vs veh, ING1 / RFU, TRMT61B / Fold change vs veh, TRMT61B / RFU, FUBP3 / Fold change vs veh, FUBP3 / RFU, TP53 / Fold change vs veh, TP53 / RFU, TNKS2 / Fold change vs veh, TNKS2 / RFU, ZFP14 / Fold change vs veh, ZFP14 / RFU, ACTR2 / Fold change vs veh, ACTR2 / RFU, PPP3R1 / Fold change vs veh, PPP3R1 / RFU, PIK3R1 / Fold change vs veh, PIK3R1 / RFU, HNRNPA1 / Fold change vs veh, HNRNPA1 / RFU, RNF170 / Fold change vs veh, RNF170 / RFU, ZNF28 / Fold change vs veh, ZNF28 / RFU, RNGTT / Fold change vs veh, RNGTT / RFU, OGT / Fold change vs veh, OGT / RFU, BRD1 / Fold change vs veh, BRD1 / RFU, MARS / Fold change vs veh, MARS / RFU, ZNF655 / Fold change vs veh, ZNF655 / RFU, FAHD1 / Fold change vs veh, FAHD1 / RFU, BDP1 / Fold change vs veh, BDP1 / RFU, LRRCC1 / Fold change vs veh, LRRCC1 / RFU, ARID1A / Fold change vs veh, ARID1A / RFU, ZNF146 / Fold change vs veh, ZNF146 / RFU, ZNF330 / Fold change vs veh, ZNF330 / RFU, GPN3 / Fold change vs veh, GPN3 / RFU, C9orf123 / Fold change vs veh, C9orf123 / RFU, N4BP2L2 / Fold change vs veh, N4BP2L2 / RFU, ARFIP1 / Fold change vs veh, ARFIP1 / RFU, FAM179B / Fold change vs veh, FAM179B / RFU, BCL10 / Fold change vs veh, BCL10 / RFU, UHRF1BP1L / Fold change vs veh, UHRF1BP1L / RFU, BET1 / Fold change vs veh, BET1 / RFU, CNOT2 / Fold change vs veh, CNOT2 / RFU, ZNF268 / Fold change vs veh, ZNF268 / Fold change vs veh, ZNF507 / RFU, DGCR2 / Fold change vs veh, DGCR2 / RFU, WDSUB1 / Fold change vs veh, WDSUB1 / Fold change vs veh, HSP90B1 /// MIR3652 / RFU, ADSS / Fold change vs veh, ADSS / RFU, GK / Fold change vs veh, GK / RFU, ZNF148 / Fold change vs veh, ZNF148 / RFU, TAF9 / Fold change vs veh, TAF9 / RFU, SLC1A5 / Fold change vs veh, SLC1A5 / RFU, SLMO2 / Fold change vs veh, SLMO2 / RFU, ABCC4 / Fold change vs veh, ABCC4 / RFU, LOC101060439 /// RAP1B / Fold change vs veh, LOC101060439 /// RAP1B / RFU, RFX7 / Fold change vs veh, RFX7 / RFU, GTPBP10 / Fold change vs veh, GTPBP10 / RFU, CNEP1R1 / Fold change vs veh, CNEP1R1 / RFU, BIVM-ERCC5 /// ERCC5 / Fold change vs veh, BIVM-ERCC5 /// ERCC5 / RFU, ILF3 / Fold change vs veh, ILF3 / RFU 11762660_at / Fold change /veh 11762660_at / RFU VCAN (11757783_s_at) / Fold change /veh VCAN (11757783_s_at) / RFU DDX43 (11728927_at) / Fold change /veh DDX43 (11728927_at) / RFU KRT8 (11758188_x_at) / Fold change /veh KRT8 (11758188_x_at) / RFU NKD1 (11759106_at) / Fold change /veh NKD1 (11759106_at) / RFU SRD5A1 (11742802_a_at) / Fold change /veh SRD5A1 (11742802_a_at) / RFU TPSAB1 /// TPSB2 (11721975_s_at) / Fold change /veh TPSAB1 /// TPSB2 (11721975_s_at) / RFU GSTM3 (11746129_a_at) / Fold change /veh GSTM3 (11746129_a_at) / RFU IL23R (11737362_x_at) / Fold change /veh IL23R (11737362_x_at) / RFU TMEM51 (11727254_a_at) / Fold change /veh TMEM51 (11727254_a_at) / RFU PIWIL2 (11732686_x_at) / Fold change /veh PIWIL2 (11732686_x_at) / RFU ORM1 (11744905_x_at) / Fold change /veh ORM1 (11744905_x_at) / RFU CCDC152 (11743942_at) / Fold change /veh CCDC152 (11743942_at) / RFU ECM1 (11717891_a_at) / Fold change /veh ECM1 (11717891_a_at) / RFU IL23R (11748794_a_at) / Fold change /veh IL23R (11748794_a_at) / RFU TNFAIP8L3 (11732012_x_at) / Fold change /veh TNFAIP8L3 (11732012_x_at) / RFU MBOAT4 (11741988_at) / Fold change /veh MBOAT4 (11741988_at) / RFU 11764193_at / Fold change /veh 11764193_at / RFU TMEM53 (11763286_at) / Fold change /veh TMEM53 (11763286_at) / RFU MAGEB2 (11727129_at) / Fold change /veh MAGEB2 (11727129_at) / RFU TMEM200A (11744735_a_at) / Fold change /veh TMEM200A (11744735_a_at) / RFU CCDC152 (11751479_a_at) / Fold change /veh CCDC152 (11751479_a_at) / RFU FAM211A (11726209_a_at) / Fold change /veh FAM211A (11726209_a_at) / RFU RGS16 (11746705_a_at) / Fold change /veh RGS16 (11746705_a_at) / RFU VCAN (11755009_s_at) / Fold change /veh VCAN (11755009_s_at) / RFU RHOB (11743442_s_at) / Fold change /veh RHOB (11743442_s_at) / RFU RGS16 (11720943_a_at) / Fold change /veh RGS16 (11720943_a_at) / RFU RGS16 (11720944_at) / Fold change /veh RGS16 (11720944_at) / RFU, VPS4B / Fold change vs veh, VPS4B / RFU, CREB1 / Fold change vs veh, CREB1 / RFU, DNAJC13 / Fold change vs veh, DNAJC13 / RFU, GNAQ / Fold change vs veh, GNAQ / RFU, CDK5R1 / Fold change vs veh, CDK5R1 / RFU, ZRANB3 / Fold change vs veh, ZRANB3 / RFU, CUL4A / Fold change vs veh, CUL4A / RFU, CCNY / Fold change vs veh, CCNY / RFU, UFL1 / Fold change vs veh, UFL1 / RFU, COG3 / Fold change vs veh, COG3 / RFU, DIAPH2 / Fold change vs veh, DIAPH2 / RFU, SKA2 / Fold change vs veh, SKA2 / RFU, AFF3 / Fold change vs veh, AFF3 / RFU, LMF1 / Fold change vs veh, LMF1 / RFU, IPO11 / Fold change vs veh, IPO11 / RFU, DFFB / Fold change vs veh, DFFB / RFU, FOXP1 / Fold change vs veh, FOXP1 / RFU, CARD8 / Fold change vs veh, CARD8 / RFU, STRN3 / Fold change vs veh, STRN3 / RFU, ADK / Fold change vs veh, ADK / RFU, RASSF2 / Fold change vs veh, RASSF2 / RFU, WIPF1 / Fold change vs veh, WIPF1 / RFU, LARP1B / Fold change vs veh, LARP1B / RFU, RASA1 / Fold change vs veh, RASA1 / RFU, RB1 / Fold change vs veh, RB1 / RFU, PPFIA1 / Fold change vs veh, PPFIA1 / RFU, MAT2A / Fold change vs veh, MAT2A / RFU, CCT5 / Fold change vs veh, CCT5 / RFU, WDR92 / Fold change vs veh, WDR92 / RFU, CUX1 / Fold change vs veh, CUX1 / RFU, TTC7A / Fold change vs veh, TTC7A / RFU, TMEM135 / Fold change vs veh, TMEM135 / RFU, DEPTOR / Fold change vs veh, DEPTOR / RFU, CPM / Fold change vs veh, CPM / RFU, DNAJB6 / Fold change vs veh, DNAJB6 / RFU, CACNA2D3 / Fold change vs veh, CACNA2D3 / RFU, DTX4 / Fold change vs veh, DTX4 / RFU, TFCP2 / Fold change vs veh, TFCP2 / RFU, GMCL1 /// GMCL1P1 / Fold change vs veh, GMCL1 /// GMCL1P1 / RFU, AEBP2 / Fold change vs veh, AEBP2 / RFU, SNHG1 /// SNORD22 /// SNORD25 /// SNORD26 /// SNORD27 /// SNORD28 /// SNORD29 /// SNORD31 / Fold change vs veh, SNHG1 /// SNORD22 /// SNORD25 /// SNORD26 /// SNORD27 /// SNORD28 /// SNORD29 /// SNORD31 / Fold change (Aza/veh), C12orf56 (ProbeSet 11735607_a_at) / Fold change (ACY-1035/veh), C12orf56 (ProbeSet 11735607_a_at) / Fold change (Aza/veh), FGFR1OP (ProbeSet 11751329_s_at) / Fold change (ACY-1035/veh), FGFR1OP (ProbeSet 11751329_s_at) / Fold change (Aza/veh), VPS36 (ProbeSet 11739960_a_at) / Fold change (ACY-1035/veh), VPS36 (ProbeSet 11739960_a_at) / RFU SYPL1 (11715823_x_at) / Fold change /veh SYPL1 (11715823_x_at) / RFU IGFBP7 (11715501_s_at) / Fold change /veh IGFBP7 (11715501_s_at) / RFU REEP3 (11722064_at) / Fold change /veh REEP3 (11722064_at) / RFU IGLL1 (11728026_x_at) / Fold change /veh IGLL1 (11728026_x_at): dose or concentration left out as unconfirmed
Details: MV-4-11 cells, 48 hours

Nc1ccc(-c2cccs2)cc1NC(=O)c1ccc2c(c1)cc(C1CC1)n2CCN1CCOCC1 [ACY-1035]
Fold change /veh MYO3A (11730013_a_at): 1.10
